Assay results published in article PMC6413339 (EBioMedicine, 2019).

Columns and labels:
[1] = tested on: MOLM-14 (ITD, D835Y) cells; assay: Antiproliferative activity (CellTitre-Blue, 72 h); type: cell-based, human; settings: 72 h incubation, triplicates; listed as 20 (HSN459); read-out: IC50 (mean ±SD, nM) MOLM-14 (ITD, D835Y)
Method: (§1) Cells were seeded into 96-well tissue culture-treated plates at 2.0 × 10^4 cells/mL for up to 24 h. DMSO stock solutions of compounds were serially diluted first in DMSO and subsequently into RPMI before being added to the cell cultures in triplicates, with 10 μM being the highest tested concentration. The plates were incubated for 72 h as above. The CellTitre-Blue assay (Promega, Madison WI) was then added to the cultures and incubated a further 4 h before the fluorescence measured following the manufacturers recommendations. The fluorescence data from compounds were normalized to that DMSO and the resulting data fitted to a non-linear regression equation to obtain IC50 using GraphPad Prism 5.0 Software (La Jolla, CA, USA).

[2] = tested on: MOLM-14 (ITD, F691 L) cells; assay: Antiproliferative activity (CellTitre-Blue, 72 h); type: cell-based, human; settings: 72 h incubation, triplicates; listed as 20 (HSN459); read-out: IC50 (mean ±SD, nM) MOLM-14 (ITD, F691 L)
Method: as §1

MOLM-14 cells = assay: Antiproliferative activity (CellTitre-Blue, 72 h); type: cell-based, human; settings: Homo sapiens, MOLM-14; 72 h incubation, triplicates; read-out: IC50 (mean ±SD, nM) MOLM-14
Method: as §1

MV4–11 cells = assay: Antiproliferative activity (CellTitre-Blue, 72 h); type: cell-based, human; settings: Homo sapiens, MV4-11, 72 h, 72 h incubation, triplicates; read-out: IC50 (mean ±SD, nM) MV4–11
Method: as §1

FLT3 = molecular target: T1, FLT3 (Homo sapiens, UniProt P36888); assay: Cell-free kinase assay, single dose (Reaction Biology, ADP-Glo); type: biochemical; settings: inhibitor 500 nM; 100 μM ATP; average of duplicate
T1 construct: purchased Invitrogen PV3182
T1 sequence (P36888 564-993 limits assumed): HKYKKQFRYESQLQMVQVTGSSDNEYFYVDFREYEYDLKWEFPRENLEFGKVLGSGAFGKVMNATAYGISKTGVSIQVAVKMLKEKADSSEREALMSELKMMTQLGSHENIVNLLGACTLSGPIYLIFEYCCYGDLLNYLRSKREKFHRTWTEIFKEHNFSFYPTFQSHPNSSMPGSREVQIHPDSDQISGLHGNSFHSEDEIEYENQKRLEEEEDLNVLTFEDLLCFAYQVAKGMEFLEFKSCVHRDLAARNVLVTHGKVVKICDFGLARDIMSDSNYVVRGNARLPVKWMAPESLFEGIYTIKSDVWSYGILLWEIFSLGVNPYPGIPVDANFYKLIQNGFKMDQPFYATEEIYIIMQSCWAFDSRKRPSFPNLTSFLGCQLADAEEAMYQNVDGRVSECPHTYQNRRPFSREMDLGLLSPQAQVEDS
Method: Cell-free kinase activity assays were performed at Reaction Biology Corporation. […] DMSO was used as control. […] Experiments were performed in duplicates. The concentrations of kinases and substrates used in the assays are indicated on Table S1. Kinase activity was quantified using the ADP-Glo™ Kinase Assay System (Promega, Madison, WI) following the manufacturer's recommendations.

Src = molecular target: T2, Src (Homo sapiens, UniProt P12931); assay: Cell-free kinase assay (Reaction Biology, ADP-Glo); type: biochemical
T2 construct: purchased Invitrogen PR4336E
T2 sequence (P12931 whole entry): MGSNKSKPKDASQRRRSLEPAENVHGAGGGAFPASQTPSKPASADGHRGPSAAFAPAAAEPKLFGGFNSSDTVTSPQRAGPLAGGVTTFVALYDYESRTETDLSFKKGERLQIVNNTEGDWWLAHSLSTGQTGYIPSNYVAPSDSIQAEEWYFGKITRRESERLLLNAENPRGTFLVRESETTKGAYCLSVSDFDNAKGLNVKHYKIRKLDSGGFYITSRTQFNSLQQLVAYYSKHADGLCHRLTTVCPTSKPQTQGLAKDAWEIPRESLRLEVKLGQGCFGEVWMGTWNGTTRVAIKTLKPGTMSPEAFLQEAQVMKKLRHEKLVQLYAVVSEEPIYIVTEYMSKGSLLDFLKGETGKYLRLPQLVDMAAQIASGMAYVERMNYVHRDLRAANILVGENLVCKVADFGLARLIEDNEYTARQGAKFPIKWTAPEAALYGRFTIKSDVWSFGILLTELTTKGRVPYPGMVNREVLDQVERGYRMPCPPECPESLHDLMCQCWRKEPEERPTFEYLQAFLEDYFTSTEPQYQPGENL
Method: (§2) Cell-free kinase activity assays were performed at Reaction Biology Corporation. Briefly, kinases were incubated with substrates, 100 μM ATP and a 3-fold serial dilution of compounds starting at 1 μM. DMSO was used as control. […] Experiments were performed in duplicates. The concentrations of kinases and substrates used in the assays are indicated on Table S1. Kinase activity was quantified using the ADP-Glo™ Kinase Assay System (Promega, Madison, WI) following the manufacturer's recommendations.

FLT3-ITD = FLT3-ITD (Homo sapiens, UniProt P36888, ITD); assay: Cell-free kinase assay, dose-response (Reaction Biology, ADP-Glo); type: biochemical; settings: FLT3-ITD 100 nM; ATP 100 μM; read-out: IC50 against FLT3-ITD
Method: as §2

MV4–11-luc cells = assay: In vivo efficacy, orthotopic human AML model
Method: The in vivo efficacy of compounds was assessed in an orthotopic human AML model in NSG (NOD scid gamma, NOD-scid IL2Rg^null) mice that were bred at University of Maryland Baltimore (mating pairs acquired from Jackson Laboratories; Maine). […]. Three days later, engraftment was assessed by imaging on a Xenogen IVIS-2 Imaging System (Alameda) after an intraperitoneal (IP) injection of 150 mg/kg luciferin. Mice were sorted into four or five groups (n = 5) so that mean intensity (i.e., disease burden) was equal. Dosing started on day of sorting. Compounds were dissolved in 85% PBS (pH 7.4) buffer containing 10% DMSO and 5% Cremophore. The vehicle (buffer without compounds) was used as control. Mice were injected 3 to 5 days per week via IP injection. Mice were weighed on day of dosing and imaged once per week. […]. All mice were housed in a 12-h light/dark cycle with access to food and water ad libitum. Studies were performed with Institutional Animal Care and Use Committee (UMB and Purdue University) approval.
[…]. Female mice were dosed daily for 5 days via intraperitoneal injection and then monitored for an additional week for weight loss, a sign of toxicity in mice. […] To evaluate the anti-leukemic efficacy in vivo, six-week-old female NSG or NRG mice were injected intravenously with FLT3-ITD expressing acute myeloid leukemia cells (MV4–11), expressing luciferase. […] Dosing (i.p) with the compounds was then started. The mice were dosed with 25 mg/kg of the compounds three times a week (MWF). […] […].

Cc1ncc(C(=O)Nc2ccc(CN3CCN(C)CC3)c(C(F)(F)F)c2)cc1C#Cc1cnc(N)c2ncccc12 [Compound 20]
IC50 [1]: 4 ± 0.02 nM | IC50 [2]: 0.9 ± 0.004 nM | IC50 (MOLM-14 cells): 0.2 ± 0.002 nM | IC50 (MV4–11 cells): 0.3 ± 0.004 nM | inhibition at 0.5 µM (FLT3): 97% | IC50 (Src; Src 0.6 nM, ATP 100 μM, read-out: IC50 against Src): 12.2 nM | inhibition at 0.5 µM (Src; inhibitor 500 nM, 100 μM ATP, average of duplicate): 100% | IC50 (FLT3-ITD): 4.8 nM | body weight in efficacy study (MV4–11-luc cells; 25 mg/Kg i.p. three times a week, after one week): lost weight | reduction in leukemia burden (MV4–11-luc cells; 25 mg/kg i.p. three times a week (MWF), NSG or NRG mice): > 99% | tolerability in efficacy study (MV4–11-luc cells; dose reduced to 10 mg/kg): tolerable
